Results on 30 molecules are retold here after US20190119200A1, “TERTIARY AMIDES AND METHOD OF USE” (AbbVie Inc., priority 2016, published 2019).

In the experiment the target is T1, LPAR1 (Homo sapiens, UniProt Q92633).
T1 construct: host or cells: U2OS
The experiment can be described thus: LPAR1 FLIPR Assay. Type of experiment: cell-based. The settings on record: U2OS cells stably expressing LPAR1, LPA (EC80), Calcium 6 FLIPR dye; for Emax: read-out: Maximum Inhibition. On the procedure: U2OS cells stably expressing LPAR1 (Life Technologies #K1519A) were plated at 12000 cells/well in growth medium (McCoy's 5A medium(Life Technologies 16600-082)) with 10% dFBS (Life Technologies 26400-036), 0.1 mM non-essential amino acids, 25 mM HEPES, 1 mM sodium pyruvate, 1% penicillin/streptomycin, 50 μg/mL hygromycin, and 100 μg/mL Geneticin® in black-walled, clear-bottom 384-well plates (Corning #3683) and incubated in humidified 5% CO2 at 37° C. overnight. On the day of the assay, medium was removed and 30 μL of 5% Calcium 6 FLIPR dye in assay buffer-HBSS (Life Technologies #14025) containing 20 mM HEPES (Life Technologies #15630-080) was added to the cells. Cells were incubated at 37° C. in the dark for 2 hours. Compounds were 3-fold serial diluted from 10 mM for 11-points using dimethyl sulfoxide. 1 μL of compound in DMSO was diluted in 82.3 μL assay buffer immediately before the assay. Using a FLIPR® TETRA® system, 15 μL of the (4×) compound solutions were first added to the cells, then 15 μL of LPA (EC80) diluted in of assay buffer supplemented with 0.1% BSA was added 3 minutes later to activate the receptor. Changes in fluorescence were measured at wavelengths of 515-575 nm over the course of the experimental run. IC50 values were calculated from curve fits of the ratio data using a four-parameter logistic Hill equation (Assay Explorer 3.3 Client).

T1 sequence (Q92633 whole entry): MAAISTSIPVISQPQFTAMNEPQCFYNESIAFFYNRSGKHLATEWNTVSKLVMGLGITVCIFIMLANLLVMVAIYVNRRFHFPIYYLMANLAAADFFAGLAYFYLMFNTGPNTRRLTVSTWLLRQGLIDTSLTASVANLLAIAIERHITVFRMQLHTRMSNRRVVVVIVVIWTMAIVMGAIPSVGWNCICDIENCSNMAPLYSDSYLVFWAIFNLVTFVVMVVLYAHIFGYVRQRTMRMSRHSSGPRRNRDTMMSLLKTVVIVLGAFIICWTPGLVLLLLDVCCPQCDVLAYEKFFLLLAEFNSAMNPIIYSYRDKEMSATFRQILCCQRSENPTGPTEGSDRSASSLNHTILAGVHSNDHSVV

Regarding `COc1cc(C(=O)N(C/C=C/CC(=O)O)CCCc2ccccc2)cc(OC)c1C` [Example 121, (3E)-5-[(3,5-dimethoxy-4-methylbenzoyl)(3-phenylpropyl)amino]pent-3-enoic Acid], the IC50 came out at 503 nM and the Emax came out at 86%.

On to `COc1cc(C(=O)N(CCCCP(=O)(O)O)CCCc2ccccc2)cc(OC)c1C` [Example 71, {4-[(3,5-dimethoxy-4-methylbenzoyl)(3-phenylpropyl)amino]butyl}phosphonic Acid], for which the half-maximal inhibitory concentration (IC50) is 12 nM and the Emax was found to be 91%.

With `CCOc1cc(C(=O)N(CCCCC(=O)O)CCCc2ccccc2)cc(OCC)c1OCC` [Example 21, 5-[(3-phenylpropyl)(3,4,5-triethoxybenzoyl)amino]pentanoic Acid], the IC50 turned out to be 224 nM and the Emax amounted to 82%.

Take `COc1cc(C(=O)N(CCCc2ccccc2)C(C)CCCC(=O)O)cc(OC)c1C` (stereo not drawn) [Example 164, 5-[(3,5-dimethoxy-4-methylbenzoyl)(3-phenylpropyl)amino]hexanoic Acid]: the IC50 was determined as 237 nM and the Emax turned out to be 76%.

`CCOc1cc(C(=O)N(CCCCC(=O)O)CCCc2ccccc2)ccn1` [Example 14, 5-[(2-ethoxypyridine-4-carbonyl)(3-phenylpropyl)amino]pentanoic Acid]: the IC50 is 942 nM and the Emax was 41%.

For the molecule `COc1c(F)cc(C(=O)N(CCCCC(=O)O)CCCc2ccccc2)cc1F` [Example 13, 5-[(3,5-difluoro-4-methoxybenzoyl)(3-phenylpropyl)amino]pentanoic Acid], the IC50 came out at 6170 nM and the Emax was found to be 48%.

Consider `CCOC1CC1(C(=O)N(CCCCC(=O)O)CCCc1ccccc1)c1ccc(OC)cc1` (stereo not drawn) [Example 149, 5-{[2-ethoxy-1-(4-methoxyphenyl)cyclopropane-1-carbonyl](3-phenylpropyl)amino}pentanoic Acid], for which the IC50 amounted to 838 nM and the Emax is 72%.

As to `Cn1cc(C(=O)N(CCCCC(=O)O)CCCc2ccccc2)c2ccccc2c1=O` [Example 169, 5-[(2-methyl-1-oxo-1,2-dihydroisoquinoline-4-carbonyl)(3-phenylpropyl)amino]pentanoic Acid], the IC50 is 3090 nM and the Emax came to 71%.

With `COc1cc(OC)cc(C(=O)N(CCCc2ccccc2)CCSCC(=O)O)c1` [Example 101, ({2-[(3,5-dimethoxybenzoyl)(3-phenylpropyl)amino]ethyl}sulfanyl)acetic Acid], the IC50 worked out at 6950 nM and the Emax was found to be 59%.

On to `O=C(O)CCCCN(CCCc1ccccc1)C(=O)c1cccc(OC(F)(F)F)c1` [Example 26, 5-{(3-phenylpropyl)[3-(trifluoromethoxy)benzoyl]amino}pentanoic Acid], for which the IC50 is greater than 30000 nM and the Emax was found to be 50%.

As to `COc1cc(C(=O)N(CCCCC(=O)O)CCCc2ccccc2)cc(OC)c1OCCO` [Example 88, 5-{[4-(2-hydroxyethoxy)-3,5-dimethoxybenzoyl](3-phenylpropyl)amino}pentanoic Acid], the IC50 is 293 nM and the Emax turned out to be 91%.

For `COc1cc(C(=O)N(CCCCC(=O)NS(=O)(=O)c2ccc(F)cc2)CCCc2ccccc2)cc(OC)c1C` [Example 140, N-{5-[(4-fluorobenzene-1-sulfonyl)amino]-5-oxopentyl}-3,5-dimethoxy-4-methyl-N-(3-phenylpropyl)benzamide], the IC50 amounted to 143 nM and the Emax amounted to 89%.

Turning to `COc1cc(C(=O)N(CCCc2ccc(F)cc2)CCSCC(=O)O)cc(OC)c1C` [Example 118, [(2-{(3,5-dimethoxy-4-methylbenzoyl)[3-(4-fluorophenyl)propyl]amino}ethyl)sulfanyl]acetic Acid], the IC50 worked out at 247 nM and the Emax came out at 78%.

`COc1cc(C(=O)N(CCCc2ccccc2)CCCC(C)P(=O)(O)O)cc(OC)c1C` (stereo not drawn) [Example 72, {5-[(3,5-dimethoxy-4-methylbenzoyl)(3-phenylpropyl)amino]pentan-2-yl}phosphonic Acid]: the IC50 turned out to be 26 nM and the Emax was determined as 99%.

In the case of `O=C(O)CCCCN(CCCc1ccccc1)C(=O)c1cc(Cl)cc(Cl)c1` [Example 12, 5-[(3,5-dichlorobenzoyl)(3-phenylpropyl)amino]pentanoic Acid], the IC50 turned out to be 3240 nM and the Emax came to 55%.

Turning to `COc1cc(C(=O)N(CCCCC(=O)O)[C@@H](C)CCc2ccccc2)cc(OC)c1C` [Example 154, 5-{(3,5-dimethoxy-4-methylbenzoyl) [(2S)-4-phenylbutan-2-yl]amino}pentanoic Acid], the IC50 turned out to be 225 nM and the Emax turned out to be 69%.

Turning to `COc1ccc(CCCN(CCCCC(=O)O)C(=O)c2cc(OC)c(C)c(OC)c2)cc1` [Example 43, 5-{(3,5-dimethoxy-4-methylbenzoyl)[3-(4-methoxyphenyl)propyl]amino}pentanoic Acid], the half-maximal inhibitory concentration (IC50) was 23300 nM and the Emax amounted to 55%.

As for `O=C(O)CCCCN(CCCc1ccccc1)C(=O)C1(c2ccc(OC(F)(F)F)cc2)CC1` [Example 25, 5-[(3-phenylpropyl){1-[4-(trifluoromethoxy)phenyl]cyclopropane-1-carbonyl}amino]pentanoic Acid], the IC50 amounted to 29300 nM and the Emax was found to be 48%.

For `COc1cc(C(=O)N(CCCc2ccc(F)cc2F)CCSCC(=O)O)cc(OC)c1C` [Example 114, [(2-{[3-(2,4-difluorophenyl)propyl](3,5-dimethoxy-4-methylbenzoyl)amino}ethyl)sulfanyl]acetic Acid], the IC50 was 671 nM and the Emax worked out at 76%.

For the molecule `O=C(O)CCCCN(CCCc1ccccc1)C(=O)C1(c2ccc3c(c2)OCO3)CC1` [Example 27, 5-{[1-(2H-1,3-benzodioxol-5-yl)cyclopropane-1-carbonyl](3-phenylpropyl)amino}pentanoic Acid], the IC50 stood at 1060 nM and the Emax is 65%.

Regarding `COc1cc(C(=O)N(CCCCC(=O)O)CCCc2cccc(C(F)(F)F)c2)cc(OC)c1C` [Example 40, 5-[(3,5-dimethoxy-4-methylbenzoyl){3-[3-(trifluoromethyl)phenyl]propyl}amino]pentanoic Acid], the IC50 was found to be 29300 nM and the Emax is 45%.

Take `COc1cc(C(=O)N(CCCCC(=O)O)CCCc2ccc(Cl)cc2)cc(OC)c1C` [Example 36, 5-{[3-(4-chlorophenyl)propyl](3,5-dimethoxy-4-methylbenzoyl)amino}pentanoic Acid]: the IC50 worked out at 600 nM and the Emax worked out at 83%.

On to `COc1cc(C(=O)N(CCCc2ccccc2)CCOC(C)(C)C(=O)NS(C)(=O)=O)cc(OC)c1C` [Example 156, N-[2-({1-[(methanesulfonyl)amino]-2-methyl-1-oxopropan-2-yl}oxy)ethyl]-3,5-dimethoxy-4-methyl-N-(3-phenylpropyl)benzamide], for which the IC50 was determined as 21 nM and the Emax came to 99%.

Regarding `COc1cc(C(=O)N(CCCc2ccccc2)CCOC(=O)NS(=O)(=O)c2ccc(F)cc2)cc(OC)c1C` [Example 183, 2-[(3,5-dimethoxy-4-methylbenzoyl)(3-phenylpropyl)amino]ethyl (4-fluorobenzene-1-sulfonyl)carbamate], the IC50 is greater than 10000 nM and the Emax was found to be 30%.

For `COc1cc(C(=O)N(CCCCC(=O)O)CCCc2ccc(C)cc2)cc(OC)c1C` [Example 42, 5-{(3,5-dimethoxy-4-methylbenzoyl)[3-(4-methylphenyl)propyl]amino}pentanoic Acid], the IC50 is 236 nM and the Emax worked out at 90%.

With `O=C(O)CCCCN(CCCc1ccccc1)C(=O)c1ccc2c(c1)OCCCO2` [Example 23, 5-[(3,4-dihydro-2H-1,5-benzodioxepine-7-carbonyl)(3-phenylpropyl)amino]pentanoic Acid], the IC50 was found to be 12600 nM and the Emax amounted to 53%.

As for `COc1cc(C(=O)N(CCCc2ccccc2)C[C@H]2CCC(=O)O2)cc(OC)c1C` [Example 181, 3,5-dimethoxy-4-methyl-N-{[(2R)-5-oxooxolan-2-yl]methyl}-N-(3-phenylpropyl)benzamide], the IC50 came to 486 nM and the Emax was 80%.

Turning to `O=C(O)CCCCN(CCCc1ccccc1)C(=O)C1CC(=O)Nc2ccc(F)cc21` (stereo not drawn) [Example 168, 5-[(6-fluoro-2-oxo-1,2,3,4-tetrahydroquinoline-4-carbonyl)(3-phenylpropyl)amino]pentanoic Acid], the IC50 came to 1100 nM and the Emax was found to be 62%.

With `COc1cc(C(=O)N(CCCc2ccccc2)CC(=O)NCC(=O)O)cc(OC)c1C` [Example 51, N-(3,5-dimethoxy-4-methylbenzoyl)-N-(3-phenylpropyl)glycylglycine], the IC50 is 238 nM and the Emax was found to be 62%.

In the case of `COc1cc(C(=O)N(CCCCC(=O)O)CCCc2ccc(Cl)cc2Cl)cc(OC)c1C` [Example 49, 5-{[3-(2,4-dichlorophenyl)propyl](3,5-dimethoxy-4-methylbenzoyl)amino}pentanoic Acid], the IC50 came out at 24300 nM and the Emax was 58%.

Broadly, the IC50 is the concentration needed to halve the response being measured.
